Assay results: PubChem BioAssay AID200 (DTP/NCI, 2004)
Where “and” joins values, the source holds several entries; their conditions need not be identical. Equal values may be shown once. Inconclusive results and toxic doses are left out.

System: B6C3F1 mice, B16 melanoma ip, median survival T/C
Assay: NCI In Vivo Anticancer Drug Screen. Data for tumor model B16 Melanoma (intraperitoneal) in B6C3F1 mice
Conditions: endpoint: median survival time, schedule: Q01DX009 (ip), higher = longer survival
Outline: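 Tumor-bearing mice received test compound; a separate group got vehicle only. Survival was then compared, with results reported as treated over control.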

[1] = dose: 50.0 mg/kg/injection, vehicle: saline
[2] = dose: 100.0 mg/kg/injection, vehicle: saline
[3] = dose: 12.5 mg/kg/injection, vehicle: Klucel (hydroxypropylcellulose) (HPC)
[4] = dose: 25.0 mg/kg/injection, vehicle: Klucel (hydroxypropylcellulose) (HPC)
[5] = dose: 50.0 mg/kg/injection, vehicle: Klucel (hydroxypropylcellulose) (HPC)
[6] = dose: 100.0 mg/kg/injection, vehicle: Klucel (hydroxypropylcellulose) (HPC)
[7] = dose: 200.0 mg/kg/injection, vehicle: Klucel (hydroxypropylcellulose) (HPC)
[8] = dose: 12.5 mg/kg/injection, vehicle: saline with Tween-80
[9] = dose: 25.0 mg/kg/injection, vehicle: saline with Tween-80
[10] = dose: 100.0 mg/kg/injection, vehicle: saline with Tween-80
[11] = dose: 200.0 mg/kg/injection, vehicle: saline with Tween-80
[12] = dose: 25.0 mg/kg/injection, vehicle: saline
[13] = dose: 50.0 mg/kg/injection, vehicle: saline with Tween-80

For `COc1cc2c(c(OC)c1OC)-c1ccc(OC)c(=O)cc1[C@@H](NC(C)=O)CC2`, the T/C (dose: 0.02 mg/kg/injection, vehicle: saline) was 108 % of control, the T/C (dose: 0.04 mg/kg/injection, vehicle: saline) was 123 % of control and the T/C (dose: 0.13 mg/kg/injection, vehicle: Klucel (hydroxypropylcellulose) (HPC)) was 158 % of control. The T/C (dose: 0.19 mg/kg/injection, vehicle: saline) was 156 % of control, the T/C (dose: 0.25 mg/kg/injection, vehicle: Klucel (hydroxypropylcellulose) (HPC)) was 155 % of control and the T/C (dose: 0.25 mg/kg/injection, vehicle: saline) was 164 % of control. The T/C (dose: 0.37 mg/kg/injection, vehicle: saline) was 167 % of control, the T/C (dose: 0.38 mg/kg/injection, vehicle: saline) was 168 % of control and the T/C (dose: 0.5 mg/kg/injection, vehicle: Klucel (hydroxypropylcellulose) (HPC)) was 173 % of control. For the same compound, the T/C (dose: 0.5 mg/kg/injection, vehicle: saline) was 154 % of control, the T/C (dose: 0.5 mg/kg/injection, vehicle: water) was 157 % of control and the T/C (dose: 1.0 mg/kg/injection, vehicle: saline) was 154 % of control. For the same compound, the T/C (dose: 125.0 micrograms/kg/injection, vehicle: water) was 161 % of control, the T/C (dose: 250.0 micrograms/kg/injection, vehicle: water) was 154 % of control and the T/C (dose: 500.0 micrograms/kg/injection, vehicle: water) was 155 % of control.

`Nc1ncc(C2OC(CO)C(O)C2O)c(=O)[nH]1` (configuration not stated) was tested, and the T/C [1] was 150 % of control and the T/C [2] was 154 % of control.

In the case of `O=C1NC(=O)NC(C(=O)O)N1`, the T/C (dose: 0.75 mg/kg/injection, vehicle: Klucel (hydroxypropylcellulose) (HPC)) is reported as 108 % of control, the T/C (dose: 1.5 mg/kg/injection, vehicle: Klucel (hydroxypropylcellulose) (HPC)) is reported as 106 % of control and the T/C (dose: 3.0 mg/kg/injection, vehicle: Klucel (hydroxypropylcellulose) (HPC)) is reported as 116 % of control. For the same compound, the T/C (dose: 6.0 mg/kg/injection, vehicle: Klucel (hydroxypropylcellulose) (HPC)) was 106 % of control and the T/C (dose: 12.0 mg/kg/injection, vehicle: Klucel (hydroxypropylcellulose) (HPC)) was 107 % of control.

`O=C1CC2(C(=O)N1CN1CCCCC1)c1ccccc1-c1ccccc12` was tested, and the T/C [3] was 91 % of control, the T/C [4] was 95 % of control and the T/C [5] was 95 % of control. For the same compound, the T/C [6] was 110 % of control and the T/C [7] was 92 % of control.

With `c1ccc(OCC2CO2)c(OCC2CO2)c1` (configuration not stated) the T/C [8] was 108 % of control, the T/C [9] was 109 % of control and 114 % of control and 118 % of control and the T/C [10] was 150 % of control and 171 % of control. For the same compound, the T/C [11] was 219 % of control.

In the case of `COC1CC(C)C(OC)C2=CC(=O)C=C(NC(=O)/C(C)=C/C=C\C(C)C(OC(N)=O)/C(C)=C\C(C)C1OC)C2=O` (configuration not stated), the T/C (dose: 2.5 mg/kg/injection, vehicle: saline + alcohol) is reported as 176 % of control, the T/C (dose: 5.0 mg/kg/injection, vehicle: saline + alcohol) is reported as 155 % of control and the T/C (dose: 10.0 mg/kg/injection, vehicle: saline + alcohol) is reported as 174 % of control.

For `CCOC(=O)CNC(=O)Sc1ccc(C(C)(C)C)cc1`, the T/C [3] was 100 % of control, the T/C [4] was 100 % of control and the T/C [5] was 102 % of control. The T/C [6] was 105 % of control and the T/C [7] was 115 % of control.

`O=C(C1CO1)C(Cl)(Cl)Cl` (configuration not stated) was tested, and the T/C (dose: 12.0 mg/kg/injection, vehicle: saline) was 92 % of control and the T/C [12] was 106 % of control.

`CC(C)(C)OC(=O)NC(Cc1ccc(O)cc1)C(=O)ON1C(=O)CCC1=O` (configuration not stated) was tested, and the T/C [6] was 101 % of control and the T/C [7] was 96 % of control.

With `O=[N+]([O-])c1nccn1CC(O)CO` (configuration not stated) the T/C (dose: 12.5 mg/kg/injection, vehicle: saline) was 91 % of control and 101 % of control, the T/C [12] was 102 % of control and 107 % of control and the T/C [1] was 95 % of control and 97 % of control. The T/C [2] was 111 % of control and 93 % of control, the T/C (dose: 200.0 mg/kg/injection, vehicle: saline) was 95 % of control and 98 % of control and the T/C (dose: 400.0 mg/kg/injection, vehicle: saline) was 91 % of control and 107 % of control.

In the case of `Nc1ccc(Cl)c2ccccc12`, the T/C [9] is reported as 99 % of control, the T/C [13] is reported as 103 % of control and the T/C [10] is reported as 109 % of control.

With `O=C(Nc1ccccc1)c1c(O)[nH]c(=O)[nH]c1=O` the T/C [8] was 103 % of control, the T/C [9] was 110 % of control and 100 % of control and the T/C [13] was 114 % of control and 115 % of control.

For `Cc1ccc(NCC2(/N=C/c3ccccc3)OC(CO)C(O)C2O)cc1` (configuration not stated), the T/C (dose: 400.0 mg/kg/injection, vehicle: Klucel (hydroxypropylcellulose) (HPC)) was 161 % of control.

For `COc1ccc2c(c1OC(C)=O)-c1cc(O)cc3c1C(C2)N(C(=O)CN(CCCl)CCCl)CC3` (configuration not stated), the T/C (dose: 3.12 mg/kg/injection, vehicle: saline with Tween-80) was 164 % of control, the T/C (dose: 6.25 mg/kg/injection, vehicle: saline with Tween-80) was 153 % of control and the T/C [8] was 207 % of control.

For `O=CNCC(=O)O`, the T/C [1] was 91 % of control and the T/C [2] was 89 % of control.

For `CC(C)[C@](O)(C(=O)OCC1=CCN2CC[C@@H](O)[C@@H]12)[C@H](C)O`, the T/C (dose: 25.0 mg/kg/injection, vehicle: water) was 107 % of control, the T/C (dose: 50.0 mg/kg/injection, vehicle: water) was 111 % of control and 116 % of control and the T/C (dose: 100.0 mg/kg/injection, vehicle: water) was 111 % of control. For the same compound, the T/C (dose: 200.0 mg/kg/injection, vehicle: water) was 117 % of control.

With `O=c1c(O)c(-c2ccc(O)c(O)c2)oc2cc(O)cc(O)c12` the T/C (dose: 12.5 mg/kg/injection, vehicle: suspension in saline) was 103 % of control, the T/C (dose: 25.0 mg/kg/injection, vehicle: suspension in saline) was 107 % of control and the T/C (dose: 50.0 mg/kg/injection, vehicle: suspension in saline) was 102 % of control. For the same compound, the T/C (dose: 100.0 mg/kg/injection, vehicle: suspension in saline) was 109 % of control.

`CC(C)=CC(=O)OC1C2C(C)=CC(=O)C(O)C2(C)C2C3(O)OCC24C(CC(=O)OC14)C(C)C3O` (configuration not stated) was tested, and the T/C (dose: 0.25 mg/kg/injection, vehicle: distilled water + Tween-80) was 163 % of control and 168 % of control and the T/C (dose: 0.5 mg/kg/injection, vehicle: distilled water + Tween-80) was 150 % of control and 160 % of control and 168 % of control.

In the case of `CC(=O)O[C@H]1C(=O)[C@@]2(C)C(C(OC(=O)c3ccccc3)[C@]3(O)C[C@H](OC(=O)C(OC(=O)CCCC(=O)NCCCN(C)C)C(NC(=O)c4ccccc4)c4ccccc4)C(C)=C1C3(C)C)C1(OC(C)=O)COC1C[C@@H]2O` (some centres not stated), the T/C (dose: 10.0 mg/kg/injection, vehicle: water) is reported as 191 % of control, the T/C (dose: 20.0 mg/kg/injection, vehicle: water) is reported as 229 % of control and the T/C (dose: 40.0 mg/kg/injection, vehicle: water) is reported as 289 % of control.

In the case of `CC(C)(C)C(=O)CC(=O)C(F)(F)C(F)(F)C(F)(F)F.CC(C)(C)C(=O)CC(=O)C(F)(F)C(F)(F)C(F)(F)F.CC(C)(C)C(=O)CC(=O)C(F)(F)C(F)(F)C(F)(F)F.[Er]`, the T/C (dose: 12.5 mg/kg/injection, vehicle: saline + alcohol) is reported as 105 % of control, the T/C (dose: 25.0 mg/kg/injection, vehicle: saline + alcohol) is reported as 118 % of control and the T/C (dose: 50.0 mg/kg/injection, vehicle: saline + alcohol) is reported as 109 % of control. The T/C (dose: 100.0 mg/kg/injection, vehicle: saline + alcohol) was 111 % of control.

`Cc1ccc2c(ccc(CC(=S)[S-])[n+]2C)c1` was tested, and the T/C (dose: 6.25 mg/kg/injection, vehicle: Klucel (hydroxypropylcellulose) (HPC)) was 92 % of control and 93 % of control, the T/C [3] was 92 % of control and 99 % of control and the T/C [4] was 87 % of control and 88 % of control. For the same compound, the T/C [5] was 89 % of control.

In the case of `NC(=O)c1cc(Cl)nc2nc(Cl)nc(N)c12`, the T/C [9] is reported as 92 % of control, the T/C [13] is reported as 101 % of control and the T/C [10] is reported as 86 % of control. For the same compound, the T/C [11] was 98 % of control and the T/C (dose: 400.0 mg/kg/injection, vehicle: saline with Tween-80) was 106 % of control.
